Reference: patent US20110178171A1, “COMPOUNDS FOR CANCER THERAPY” (China Medical University, priority 2010, published 2011)

Columns and labels:
LNCaP xenografts = test: Antitumor activity in vivo, LNCaP xenograft; design: species or system mice
Method: Xenograft mice as a model system to study cytotoxicity effect of isochaihulactone in vivo: the implantation of cancer cells (LNCaP) were carried out similarly to previous reports. Female congenital athymic BALB/c nude (nu/nu) mice were purchased from National Sciences Council (Taipei, Taiwan) and all procedures were performed in compliance with the standard operating procedures of the Laboratory Animal Center of China Medical University (Taichung, Taiwan). All experiments were carried out using 6-8-week old mice weighing 18-22 g. The animals were s.c. implanted with 1×10^7 cell sinto the back of mice. When the tumor reached 80-120 mm3 in volume, animals were divided randomly into control and test groups consisting of six mice per group (day 0). Daily s.c. administration of z-K8, dissolved in a vehicle of 20% Tween 80 in normal saline (v/v) was performed from days 0 to 4 far from the inoculated tumor sites (>1.5 cm). The control group was treated with vehicle only. The mice were weighed three times a week up to days 21-28 to monitor the effects and the same time the tumor volume was determined by measurement of the length (L) and width (W) of the tumor. The tumor volume at day n (TVn) was calculated as TV (mm3)=(L×W^2)/2. The relative tumor volume at day n (RTVn) versus day 0 was expressed according to the following formula: RTVn=TVn/TV0. Tumor regression (T/C(%)) in treated versus control mice was calculated using: T/C(%)=(mean RTV of treated group)/(mean RTV of control group)×100. Xenograft tumors as well as other vital organs of treated and control. The results are shown in Tables 6 and 7 and FIGS. 6 and 7.
(§1) Assays were carried out to examine the inhibition of human xenografts growth in vivo by isochaihulactone. Briefly, LNCaP tumor-bearing mice were administered s.c. with vehicle control, 30 mg/kg E-K8, and Z-K8 respectively on days 0-4 for 5 days. The volumes of the tumors were measured. […] Scale bars, […]. Data represent means W S.D. of tumor volume at each time
as §1, with “Z-K8. Again,” for “isochaihulactone. Briefly,”, “Z-K8 15” for “30”, “mg/kg” for “mg/kg E-K8, and Z-K8 respectively”, “time point.” for “time”

[1] = tested on: liver cancer cell line J5; test: MTT growth inhibition assay, J5; assay type: cell-based; details: J5, hepatocarcinoma
Method: (§2) The results were determined by three independent experiments.
(§3) Besides, the above assay was also conducted on gastric cancer cell line NCI-N87, liver cancer cell line HepG2 and J5, lung cancer cell line A549, and oral cancer cell line OECM-1.

PC3 cells = test: MTT growth inhibition assay, PC3; assay type: cell-based, human; details: for Viability (%) PC-3: 24 h (Table 2)
Method: (§4) The LNCaP (androgen-sensitive), PC3 (androgen in-dependent), human prostate cancer and normal human fibroblast 3T3 were obtained from American Type Culture Collection (Manassas, Va.) were maintained with RPMI 1640 medium containing 10% FBS and […] each of penicillin and streptomycin at […] in a humidified atmosphere with 5% CO2.
(§5) The viability of the cells after treated with various chemicals was evaluated using MTT assay preformed in triplicate (Mosmann T. 1983. Rapid colorimetric assay for cellular growth and survival: application to proliferation and cytotoxicity assays”. Journal of immunological methods. 65 (1-2): 55-63). Briefly, the cancer cells (5×10^3) were incubated in 96-well plates containing […] of the culture medium. Cells were permitted to adhere for 12-18 h then washed with phosphate buffered saline (PBS). Solutions were always prepared fresh by dissolving 0.2% DMSO or K8 in culture medium and added to various kind of tumor. After 48 h of exposure, K8 containing medium was removed, washed with PBS and replaced by fresh medium. The cells in each well were then incubated in culture medium with […] MTT for 4 h. After the medium were removed, […] of DMSO and […] of glycine buffer (0.1 M glycine, 0.1 M NaCl, pH 10.5) were added to each well. Absorbance at 570 nm of the maximum was detected by a PowerWave X Microplate ELISA Reader (Bio-TeK Instruments, Winoski, Vt.). The absorbance for DMSO treated cells was considered as 100%. The results were determined by three independent experiments.
Cytotoxicities of Z-K8 (Isochaihulactone) on LNCaP (AR-dependent), and PC3 (AR-independent) tumor cell line were examined in the manner described above. […]

[2] = tested on: gastric cancer cell line NCI-N87; test: MTT growth inhibition assay, NCI-N87; assay type: cell-based; details: NCI-N87, gastric carcinoma
Method: as §2, §3

LNCaP cells = test: MTT growth inhibition assay, LNCaP; details: for Viability (%) LNCaP: 24 h (Table 2); for Viability (%) / IC50: LNCaP; for Viability (%): 24 h (Table 1); for IC50: androgen-dependent prostate adenocarcinoma
Method: as §4, §5
Cytotoxicity of K8 (Isochaihulactone) on LNCaP cells was examined in the manner described above. The cells were treated with KS (Isochaihulactone), its Z-form, or its E-form of different concentrations ranging from 2.5 to 20 μM for 24 h.
Cytotoxicities of Z-K8 (Isochaihulactone) on LNCaP (AR-dependent), and PC3 (AR-independent) tumor cell line were examined in the manner described above. The cells were treated with the Z- or E-form K8 (Isochaihulactone) of different concentrations ranging from 0.3125 to 5 μM for 24 h.

[3] = 30 mg/kg s.c. days 0-4, day 1 after administration
[4] = 30 mg/kg s.c. days 0-4, day 4 after administration
[5] = 30 mg/kg s.c. days 0-4, day 7 after administration
[6] = 30 mg/kg s.c. days 0-4, day 10 after administration
[7] = 30 mg/kg s.c. days 0-4, day 13 after administration
[8] = 30 mg/kg s.c. days 0-4, day 16 after administration
[9] = 30 mg/kg s.c. days 0-4, day 19 after administration

## COc1cc(/C=C2\C(=O)OCC2Cc2ccc3c(c2)OCO3)cc(OC)c1OC (racemic) [Z-K8, Racemic (Z)-β-(3′,4′-Methylenedioxybenzyl)-α-(3′,4′,5′-trimethoxybenzylidene)-γ-butyrolactone]
LNCaP xenografts; 15 mg/kg s.c. days 0-4, day 1 after administration
  Relative tumor volume: 1
LNCaP xenografts; 15 mg/kg s.c. days 0-4, day 4 after administration
  Relative tumor volume: 1.59
LNCaP xenografts; 15 mg/kg s.c. days 0-4, day 7 after administration
  Relative tumor volume: 1.91
LNCaP xenografts; 15 mg/kg s.c. days 0-4, day 10 after administration
  Relative tumor volume: 1.94
LNCaP xenografts; 15 mg/kg s.c. days 0-4, day 13 after administration
  Relative tumor volume: 2.13
LNCaP xenografts; 15 mg/kg s.c. days 0-4, day 16 after administration
  Relative tumor volume: 1.79
LNCaP xenografts; 15 mg/kg s.c. days 0-4, day 19 after administration
  Relative tumor volume: 2.00
LNCaP xenografts; 15 mg/kg s.c. days 0-4, day 21 after administration
  Relative tumor volume: 2.23
LNCaP xenografts; [3]
  Relative tumor volume: 1
  Tumor growth volume (mm^3): 0 mm^3
LNCaP xenografts; [4]
  Relative tumor volume: 1.11
  Tumor growth volume (mm^3): 0 mm^3
LNCaP xenografts; [5]
  Relative tumor volume: 1.12
  Tumor growth volume (mm^3): 90 mm^3
LNCaP xenografts; [6]
  Relative tumor volume: 1.20
  Tumor growth volume (mm^3): 202.5 mm^3
LNCaP xenografts; [7]
  Relative tumor volume: 1.23
  Tumor growth volume (mm^3): 260 mm^3
LNCaP xenografts; [8]
  Relative tumor volume: 1.47
  Tumor growth volume (mm^3): 255 mm^3
LNCaP xenografts; [9]
  Relative tumor volume: 1.23
  Tumor growth volume (mm^3): 200 mm^3
LNCaP xenografts; 30 mg/kg s.c. days 0-4, day 21 after administration
  Relative tumor volume: 1.85
LNCaP xenografts; 30 mg/kg s.c. days 0-4, day 22 after administration
  Tumor growth volume (mm^3): 225 mm^3
LNCaP xenografts; 30 mg/kg s.c. days 0-4, day 25 after administration
  Tumor growth volume (mm^3): 375 mm^3
LNCaP xenografts; 30 mg/kg s.c. days 0-4, day 28 after administration
  Tumor growth volume (mm^3): 435 mm^3
LNCaP xenografts; 30 mg/kg s.c. days 0-4, day 31 after administration
  Tumor growth volume (mm^3): 633.5 mm^3
LNCaP xenografts; LNCaP tumor-bearing mice, 30 mg/kg s.c. days 0-4 (FIG. 6)
  tumor growth inhibition, in words: better tumor growth inhibition than E-form K8
[1]
  IC50: 2500 nM
PC3 cells; 0.625 μM
  Viability (%) PC-3: 92.0%
PC3 cells; 1.25 μM
  Viability (%) PC-3: 84.5%
PC3 cells; 2.5 μM
  Viability (%) PC-3: 74.9%
PC3 cells; 5 μM
  Viability (%) PC-3: 44.9%
PC3 cells; 10 μM
  Viability (%) PC-3: 28.3%
PC3 cells; PC3, androgen-independent prostate adenocarcinoma
  IC50: 100000 nM
[2]
  IC50: > 100000 nM
LNCaP cells; 0.625 μM
  Viability (%) LNCaP: 68.9%
LNCaP cells; 1.25 μM
  Viability (%) LNCaP: 43.7%
LNCaP cells; 2.5 μM
  Viability (%) LNCaP: 21.7%
  Viability (%): 33.0%
LNCaP cells; 5 μM
  Viability (%) LNCaP: 18.4%
  Viability (%): 18.7%
LNCaP cells; 10 μM
  Viability (%) LNCaP: 16.9%
  Viability (%): 17.2%
LNCaP cells; 20 μM
  Viability (%): 16.1%
LNCaP cells
  IC50: 1250 nM
LNCaP cells; listed as Z-form of K8
  IC50: 1000 nM
